US20050282819A1, “Heterocyclic substituted indane derivatives and related compounds for the treatment of schizophrenia” (priority 2003, published 2005)

Biological target: T1, dopamine D2 receptor (Homo sapiens, UniProt P14416)
T1 construct: expressed in transfected cells; host or cells: CHO cells (CHO-hD2L), membrane preparation
Assay: Dopamine D2 receptor binding ([3H]spiperone, CHO-hD2L membranes)
Description: (§1) The ability of the compounds of this invention to bind to the dopamine D2 and serotonin 2A (5HT2A) receptors can be determined using conventional radioligand receptor binding assays. All receptors can be heterologously expressed in cell lines and experiments conducted in membrane preparations from the cell lines using procedures outlined below. IC50 concentrations can be determined by nonlinear regression of concentration-dependent reduction in specific binding. The Cheng-Prussoff equation can be used to convert the IC50 to Ki concentrations.
Dopamine D2 Receptor Binding:
[^3H]Spiperone binding to a membrane preparation from CHO-hD2L cells is carried out in 250 μl of 50 mM Tris-HCl buffer containing 100 mM NaCl, 1 mM MgCl2 and 1% DMSO at pH 7.4. Duplicate samples containing (in order of addition) the test compounds, 0.4 nM [^3H]spiperone and approximately 12 μg protein are incubated for 120 minutes at room temperature. Bound radioligand is separated by rapid filtration under reduced pressure through Whatman GF/B glass fiber filters previously treated with 0.3% polyethyleneimine. Radioactivity retained on the filter is determined by liquid scintillation spectrophotometry.
The title compounds of Examples 1-120 were tested using the above assay, in which specific binding determined in the presence of 1 mM haloperidol was 95%.

T1 sequence (P14416 whole entry): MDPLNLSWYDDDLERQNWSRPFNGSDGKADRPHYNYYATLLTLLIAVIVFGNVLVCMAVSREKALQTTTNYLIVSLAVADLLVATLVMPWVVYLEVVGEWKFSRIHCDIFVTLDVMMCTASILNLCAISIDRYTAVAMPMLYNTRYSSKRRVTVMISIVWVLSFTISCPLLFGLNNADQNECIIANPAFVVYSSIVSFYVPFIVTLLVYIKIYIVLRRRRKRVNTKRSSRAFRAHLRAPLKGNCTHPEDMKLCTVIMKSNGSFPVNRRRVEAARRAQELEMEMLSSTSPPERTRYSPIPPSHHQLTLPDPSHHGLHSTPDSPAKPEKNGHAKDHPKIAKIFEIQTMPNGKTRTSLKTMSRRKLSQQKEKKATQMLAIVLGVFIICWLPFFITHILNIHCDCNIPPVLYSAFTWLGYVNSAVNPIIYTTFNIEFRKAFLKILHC

Ki	SMILES
3 nM	O=C(NC1CCc2ccc(CCN3CCN(c4nsc5ccccc45)CC3)cc21)c1ccno1 (stereo not shown) [Example 58, ISOXAZOLE-5-CARBOXYLIC ACID {6-[2-(4-BENZO[D]ISOTHIAZOL-3-YL-PIPERAZIN-1-YL)-ETHYL]-INDAN-1-YL}-AMIDE]
9 nM	CC(=O)N[C@H]1Cc2ccc(CCN3CCN(c4nsc5ccccc45)CC3)cc2C1 [Example 60, (S)(+)-N-{5-[2-(4-BENZO[D]ISOTHIAZOL-3-YL-PIPERAZIN-1-YL)-ETHYL]-INDAN-2-YL}-ACETAMIDE]

SMILES	Ki
O=C(Cc1ccoc1)NC1CCc2ccc(CCN3CCN(c4nsc5ccccc45)CC3)cc21 (stereo not shown) [Example 56, N-{6-[2-(4-BENZO[D]ISOTHIAZOL-3-YL-PIPERAZIN-1-YL)-ETHYL]-INDAN-1-YL}-2-FURAN-3-YL-ACETAMIDE]	5 nM

Biological target: T2, serotonin 2A (5HT2A) receptor (Homo sapiens, UniProt P28223)
T2 construct: expressed in transfected cells; host or cells: Swiss-h5HT2A cells, membranes
Assay: Serotonin 2A binding ([3H]ketanserin, Swiss-h5HT2A cell membranes)
Description: as §1
[^3H]Ketanserin binding to Swiss-h5HT2A cell membranes can be carried out in 250 μl of 50 mM Tris-HCl buffer pH 7.4. Duplicate samples containing (in order of addition) test compounds, 1.0 nM [^3H]ketanserin, and approximately 75 μg protein are incubated for 120 minutes at room temperature. Bound radioligand is separated by rapid filtration under reduced pressure through Whatman GF/B glass fiber filters previously treated with 0.3% polyethyleneimine. Radioactivity retained on the filter is determined by liquid scintillation spectrophotometry.

T2 sequence (P28223 whole entry): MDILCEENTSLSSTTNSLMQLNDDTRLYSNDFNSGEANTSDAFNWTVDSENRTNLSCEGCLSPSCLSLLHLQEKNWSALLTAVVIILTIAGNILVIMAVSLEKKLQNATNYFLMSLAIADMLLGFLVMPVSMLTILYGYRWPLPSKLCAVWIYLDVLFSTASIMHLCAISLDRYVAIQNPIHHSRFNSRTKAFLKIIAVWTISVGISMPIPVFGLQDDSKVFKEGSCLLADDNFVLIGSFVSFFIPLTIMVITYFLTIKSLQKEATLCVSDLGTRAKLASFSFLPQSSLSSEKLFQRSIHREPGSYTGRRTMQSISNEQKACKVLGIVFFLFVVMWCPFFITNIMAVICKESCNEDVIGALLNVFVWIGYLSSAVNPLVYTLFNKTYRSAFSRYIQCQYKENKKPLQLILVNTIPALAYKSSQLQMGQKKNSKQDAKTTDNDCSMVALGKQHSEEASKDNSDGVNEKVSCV

Ki	SMILES
0.03 nM	O=C(NC1CCc2ccc(CCN3CCN(c4nsc5ccccc45)CC3)cc21)c1ccno1 (stereo not shown) [Example 58, ISOXAZOLE-5-CARBOXYLIC ACID {6-[2-(4-BENZO[D]ISOTHIAZOL-3-YL-PIPERAZIN-1-YL)-ETHYL]-INDAN-1-YL}-AMIDE]
0.09 nM	CC(=O)N[C@H]1Cc2ccc(CCN3CCN(c4nsc5ccccc45)CC3)cc2C1 [Example 60, (S)(+)-N-{5-[2-(4-BENZO[D]ISOTHIAZOL-3-YL-PIPERAZIN-1-YL)-ETHYL]-INDAN-2-YL}-ACETAMIDE]

SMILES	Ki
O=C(Cc1ccoc1)NC1CCc2ccc(CCN3CCN(c4nsc5ccccc45)CC3)cc21 (stereo not shown) [Example 56, N-{6-[2-(4-BENZO[D]ISOTHIAZOL-3-YL-PIPERAZIN-1-YL)-ETHYL]-INDAN-1-YL}-2-FURAN-3-YL-ACETAMIDE]	0.55 nM

Test system: not given
Assay: not given

melting point	SMILES
200 to 203 °C (dec.)	CNC1C(C)(C)c2ccc(CCN3CCN(c4nsc5ccccc45)CC3)cc2C1(C)C.CS(=O)(=O)O (stereo not shown)
248 to 250 °C	CC(=O)N(C)C1C(C)(C)c2ccc(CCN3CCN(c4nsc5ccccc45)CC3)cc2C1(C)C.CS(=O)(=O)O (stereo not shown)
197 to 205 °C	CC(=O)NC1C(C)(C)c2ccc(CCN3CCN(c4noc5ccccc45)CC3)cc2C1(C)C.CS(=O)(=O)O (stereo not shown)
115 to 125 °C (dec.)	CCNC1Cc2cc(CCN3CCN(c4nsc5ccccc45)CC3)ccc2C1(C)C.CS(=O)(=O)O (stereo not shown)
60 to 70 °C	CCN(C(C)=O)C1Cc2cc(CCN3CCN(c4nsc5ccccc45)CC3)ccc2C1(C)C.CS(=O)(=O)O (stereo not shown)
125 to 135 °C	CCNC1Cc2ccc(CCN3CCN(c4nsc5ccccc45)CC3)cc2C1(C)C.CS(=O)(=O)O (stereo not shown)
62 to 72 °C	CCN(C(C)=O)C1Cc2ccc(CCN3CCN(c4nsc5ccccc45)CC3)cc2C1(C)C.CS(=O)(=O)O (stereo not shown)
144 to 147 °C	CC1(C)C(=O)C(C)(C)c2cc(CCCN3CCN(c4nsc5ccccc45)CC3)ccc21.CS(=O)(=O)O
47 to 49 °C	CC1(C)c2ccc(CCN3CCN(c4nsc5ccccc45)CC3)cc2C(C)(C)C1O (stereo not shown) [Example 83, 5-[2-(4-BENZO[D]ISOTHIAZOL-3-YL-PIPERAZIN-1-YL)-ETHYL]-1,1,3,3-TETRAMETHYL-INDAN-2-OL]
75 to 80 °C	CC(=O)NC1C(C)(C)c2ccc(CCN3CCN(c4nsc5ccccc45)CC3)cc2C1(C)C (stereo not shown) [Example 109, N-{5-[2-(4-BENZO[D]ISOTHIAZOL-3-YL-PIPERAZIN-1-YL)-ETHYL]-1,1,3,3-TETRAMETHYL-INDAN-2-YL}-ACETAMIDE]

The next lines start with the compound.

SMILES	melting point
CC1(C)C(=O)C(C)(C)c2cc(CCCN3CCN(c4noc5ccccc45)CC3)ccc21.CS(=O)(=O)O	200 to 203 °C (dec.)
CC1(C)C(=O)C(C)(C)c2cc(CCN3CCN(c4noc5ccccc45)CC3)ccc21.CS(=O)(=O)O	259 to 261 °C
CCOC(CN1CCN(c2noc3ccccc23)CC1)c1ccc2c(c1)C(C)(C)C(=O)C2(C)C.CS(=O)(=O)O (stereo not shown)	219 to 222 °C
CC(=O)NC1Cc2ccc(CCN3CCN(c4nsc5ccccc45)CC3)cc2C1(C)C (racemic)	62 to 72 °C
CC(=O)NC1Cc2cc(CCN3CCN(c4nsc5ccccc45)CC3)ccc2C1(C)C (racemic) [Example 115, N-{5-[2-(4-BENZO[D]ISOTHIAZOL-3-YL-PIPERAZIN-1-YL)-ETHYL]-1,1-DIMETHYL-INDAN-2-YL}-ACETAMIDE]	58 to 68 °C
CC1(C)C(=O)C(C)(C)c2cc(C(O)CN3CCN(c4nsc5ccccc45)CC3)ccc21 (stereo not shown) [Example 77, 5-[2-(4-BENZO[D]ISOTHIAZOL-3-YL-PIPERAZIN-1-YL)-1-HYDROXYETHYL]-1,1,3,3-TETRAMETHYL-INDAN-2-ONE]	189 to 191 °C
CC1(C)C(=O)C(C)(C)c2cc(C(F)CN3CCN(c4nsc5ccccc45)CC3)ccc21 (stereo not shown) [Example 78, 5-[2-(4-BENZO[D]ISOTHIAZOL-3-YL-PIPERAZIN-1-YL)-1-FLUORO-ETHYL]-1,1,3,3-TETRAMETHYL-INDAN-2-ONE]	64 to 73 °C
CC1(C)c2ccc(C(F)CN3CCN(c4nsc5ccccc45)CC3)cc2C(C)(C)C1O (stereo not shown) [Example 79, 5-[2-(4-BENZO[D]ISOTHIAZOL-3-YL-PIPERAZIN-1-YL)-1-FLUORO-ETHYL]-1,1,3,3-TETRAMETHYL-INDAN-2-OL]	49 to 54 °C
CC1(C)c2ccc(C(O)CN3CCN(c4nsc5ccccc45)CC3)cc2C(C)(C)C1O (stereo not shown) [Example 80, 5-[2-(4-BENZO[D]ISOTHIAZOL-3-YL-PIPERAZIN-1-YL)-1-HYDROXY-ETHYL]-1,1,3,3-TETRAMETHYL-INDAN-2-OL]	88 to 97 °C
CC1(C)C(=O)C(C)(C)c2cc(CCN3CCN(c4nsc5ccccc45)CC3)ccc21 [Example 82, 5-[2-(4-BENZO[D]ISOTHIAZOL-3-YL-PIPERAZIN-1-YL)-ETHYL]-1,1,3,3-TETRAMETHYL-INDAN-2-ONE]	122 to 126 °C
CNC(CN1CCN(c2nsc3ccccc23)CC1)c1ccc2c(c1)C(C)(C)C(O)C2(C)C (stereo not shown) [Example 85, 5-[2-(4-BENZO[D]ISOTHIAZOL-3-YL-PIPERAZIN-1-YL)-1-METHYLAMINO-ETHYL]-1,1,3,3-TETRAMETHYL-INDAN-2-OL]	96 to 101 °C
CC1(C)c2ccc(C(O)CN3CCN(c4n[nH]c5ccccc45)CC3)cc2C(C)(C)C1O (stereo not shown) [Example 86, 5-{1-HYDROXY-2-[4-(1H-INDAZOL-3-YL)-PIPERAZIN-1-YL]-ETHYL}-1,1,3,3-TETRAMETHYL-INDAN-2-OL]	104 to 110 °C
